Data: patent US20240024317A1, “CANCER TREATMENT USING BOSENTAN IN COMBINATION WITH A CHECKPOINT INHIBITOR” (Materia Therapeutics Inc., priority 2020, published 2024)

How the values were obtained:
[1] = system: 4T1 tumors; test: Whole tumor RT-PCR mRNA expression; assay type: in vivo, mice
[2] = system: E0771 tumors; test: Extracellular matrix staining (Picro Sirius red collagen, HABP immunofluorescence); assay type: in vivo, mice
Protocol: Mice bearing syngeneic, orthotopic triple negative breast cancer (TNBC) were treated with a range of sub-therapeutic doses of bosentan, from 0.2 mg/kg to 10 mg/kg of body weight. Orthotopic models for murine mammary tumors were generated by implantation of 5×10^4 4T1 or E0771 cancer cells in 40 μl of serum-free medium into the third mammary fat pad of 6-8-week-old BALB/c and C57BL/6 female mice, respectively. 4T1 (ATCC® CRL-2539TH) and E0771 (94A001, CH3 BioSystems) mouse breast adenocarcinoma cell lines were purchased form ATCC and CH3 BioSystems, respectively. The cells were maintained at 37° C./5% CO2 in Roswell Park Memorial Institute medium (RPMI-1640, LM-R1637, Biosera) supplemented with 10% fetal bovine serum (FBS, FB-1001H, biosera) and 1% antibiotics (A5955, Sigma). Bosentan (bosentan Hydrate (S3051, Selleckchem) was dissolved in ddH2O containing 2% DMSO (GK2245, Glentham Life Science), 30% PEG300 (S6704, Selleckchem) and 2% Tween 80 (S6702, Selleckchem)) 1 mg/kg, 5 mg/kg, 10 mg/kg or equal volume of diluent (control group) was administered by intraperitoneal injection (i.p.) once a day for 10 days, starting from once the tumor volumes reached an average size of 100 mm^3. Tumors were excised when they reached an average size of 500 mm^3. Tissue stiffness was then measured non-invasively and longitudinally using ultrasound elastography. […]

[3] = system: E0771 cancer cells; test: Rechallenge of surviving mice with a second tumor cell inoculation; assay type: in vivo
Protocol: (§1) To determine if a stiffness-reducing and hypoxia-reducing (blood flow-increasing) regimen of bosentan could enhance the efficacy of an ICB cocktail of anti-PD-1 (mouse monoclonal anti-PD-1 CD279, clone RMP1-14, BioXCell) and anti-CTLA-4 (mouse monoclonal anti-CTLA-4 CD152, clone 9D9, BioXCell) antibodies, mice bearing primary tumors in a neo-adjuvant setting were administered various treatments. Therapy was administered before removing the primary tumors surgically to assess mice survival against spontaneous metastases that arose on treatment. For the combinatorial treatment with bosentan and Immunotherapy studies, bosentan 1 mg/kg or equal volume of diluent (control group) was administered by intraperitoneal injection (i.p.) once a day for 14 days, starting from once the tumor volumes reached an average size of 5 mm diameter. Immunotherapy was administrated as a cocktail of 10 mg/kg anti-PD-1 (CD279, clone RMP1-14, BioXCell) and 5 mg/kg anti-CTLA-4 (CD152, clone 9D9) following dilution in the recommended InVivoPure pH 7.0 Dilution Buffer (BioXCell). […] Planar dimensions (x, y) of tumor were monitored every 2-3 days using a digital caliper and tumor volume was estimated from the volume of an ellipsoid and assuming that the third dimension, z, is equal to x y. […]

[4] = system: 4T1 tumors; test: Shear wave elastography of tumor stiffness (Example 5); assay type: in vivo, mice; conditions: bosentan 1 mg/kg
Description: Ultrasound elastography. Shear wave elestography was employed on a premier Philips EPIQ Elite Ultrasound system using a handheld linear array (eL 18-4) transducer. The method generates shear wave velocity via an acoustic push pulse, creating a color mapped elastogram where red indicates hard tissue and blue indicates soft tissue. A confidence display was also used as a reference of the highest shear wave quality of the user-defined region of interest (ROI). The average value of the tumor region was automatically generated by the system under default scanner settings and expressed in kPa. The settings that were used were: frequency, 10 MHz; power, 52%; B-mode gain, 22 dB; dynamic range, 62 dB. Shear wave imaging was performed prior to immunotherapy cocktail treatment on day 19 and as well on days 23 and 26.

[5] = system: 4T1 tumors; test: Primary tumor growth, bosentan plus ICB cocktail, neo-adjuvant setting; assay type: in vivo, mice; conditions: 1 mg/kg bosentan combined with ICB cocktail (10 mg/kg anti-PD-1, 5 mg/kg anti-CTLA-4); n=8-10
Protocol: as §1

[6] = system: E0771 tumors; test: as above; assay type: in vivo, mice; conditions: 1 mg/kg bosentan combined with ICB cocktail (10 mg/kg anti-PD-1, 5 mg/kg anti-CTLA-4); n=10
Protocol: as §1

SMILES: COc1ccccc1Oc1c(NS(=O)(=O)c2ccc(C(C)(C)C)cc2)nc(-c2ncccn2)nc1OCCO [bosentan, 4-tert-butyl-N-[6-(2-hydroxy-ethoxy)-5-(2-methoxy-phenoxy)-2-(pyrimidin-2-yl)pyrimidin-4-yl] benzenesulfonamide]
- T cell activity expression (mRNA) [1]: increased
- endothelial adhesion molecule expression (mRNA) [1]: increased
- hypoxia related gene-expression (mRNA) [1]: reduced
- collagen levels (Picro Sirius red staining) [2]: reduction of collagen levels
- mice with tumors appearing after rechallenge ([3]; five surviving mice (bosentan plus ICB) rechallenged): two out of the five
- tumor growth rate after rechallenge ([3]; five surviving mice (bosentan plus ICB) versus healthy age-matched control mice): grew much slower
- reduction of tumor stiffness [4]: more than half
- tumor stiffness (elastic modulus) after bosentan treatment [4]: ~20 kPa
- tumor growth [5]: potentiated tumor growth inhibition
- tumor growth [6]: potentiated tumor growth inhibition
